Our source for the MBC, IC50 and MIC values is ChEMBL document CHEMBL4219190, “Studies on synthesis of novel pyrido[2,3-d]pyrimidine derivatives, evaluation of their antimicrobial activity and molecular docking” (Bioorg Med Chem Lett, 2018).

≈ marks a conversion by molar mass, not a printed value. Calls of active or inactive are those of the source.

The subject of experiment [1] is Micrococcus luteus. As to the kind of experiment: Bactericidal activity against Micrococcus luteus MTCC 2470 incubated for 24 hrs followed by transfer of microbial suspension to Mueller Hinton agar plates and measured after 24 hrs post transfer. The format is functional.
The subject of experiment [2] is Staphylococcus aureus. Nature of the experiment: Antibiofilm activity against Staphylococcus aureus MLS16 MTCC 2940 after 24 hrs by crystal violet staining-based assay. The format is functional, organism-based.
The test system of experiment [3] is Raoultella planticola. As to the kind of experiment: Antibiofilm activity against Klebsiella planticola MTCC 530 after 24 hrs by crystal violet staining-based assay. The format is functional, organism-based.
The test system of experiment [4] is Staphylococcus aureus. Nature of the experiment: Antibacterial activity against Staphylococcus aureus MTCC 96 after 24 hrs by well diffusion method. The experiment is classed as functional. Background: In agar diffusion tests the substance spreads into inoculated agar from a disc or well.
The subject of experiment [5] is Bacillus subtilis. Nature of the experiment: Bactericidal activity against Bacillus subtilis MTCC 121 incubated for 24 hrs followed by transfer of microbial suspension to Mueller Hinton agar plates and measured after 24 hrs post transfer. The format is functional.
For experiment [6], the system named is Bacillus subtilis. Nature of the experiment: Antibacterial activity against Bacillus subtilis MTCC 121 after 24 hrs by well diffusion method. The format is functional.
For experiment [7], the system named is Micrococcus luteus. Nature of the experiment: Antibacterial activity against Micrococcus luteus MTCC 2470 after 24 hrs by well diffusion method. The format is functional.
Experiment [8] concerns Staphylococcus aureus. As to the kind of experiment: Antibacterial activity against Staphylococcus aureus MLS16 MTCC 2940 after 24 hrs by well diffusion method. The format is functional.
Experiment [9] deals with Raoultella planticola. As to the kind of experiment: Antibacterial activity against Klebsiella planticola MTCC 530 after 24 hrs by well diffusion method. The format is functional.
In experiment [10] the test system is Escherichia coli. As to the kind of experiment: Antibacterial activity against Escherichia coli MTCC 739 after 24 hrs by well diffusion method. The format is functional.
Experiment [11] deals with Staphylococcus aureus. Nature of the experiment: Antibiofilm activity against Staphylococcus aureus MTCC 96 after 24 hrs by crystal violet staining-based assay. The experiment is classed as functional, organism-based.
Experiment [12] deals with Staphylococcus aureus. As to the kind of experiment: Bactericidal activity against Staphylococcus aureus MLS16 MTCC 2940 incubated for 24 hrs followed by transfer of microbial suspension to Mueller Hinton agar plates and measured after 24 hrs post transfer. The format is functional.
The subject of experiment [13] is Bacillus subtilis. Nature of the experiment: Antibiofilm activity against Bacillus subtilis MTCC 121 after 24 hrs by crystal violet staining-based assay. The format is functional, organism-based.
Experiment [14] concerns Raoultella planticola. Nature of the experiment: Bactericidal activity against Klebsiella planticola MTCC 530 incubated for 24 hrs followed by transfer of microbial suspension to Mueller Hinton agar plates and measured after 24 hrs post transfer. The format is functional.
For experiment [15], the system named is Pseudomonas aeruginosa. As to the kind of experiment: Antibacterial activity against Pseudomonas aeruginosa MTCC 2453 after 24 hrs by well diffusion method. The experiment is classed as functional.
In experiment [16] the test system is Staphylococcus aureus. Nature of the experiment: Bactericidal activity against Staphylococcus aureus MTCC 96 incubated for 24 hrs followed by transfer of microbial suspension to Mueller Hinton agar plates and measured after 24 hrs post transfer. The format is functional.
Experiment [17] relates to Pseudomonas aeruginosa. Nature of the experiment: Bactericidal activity against Pseudomonas aeruginosa MTCC 2453 incubated for 24 hrs followed by transfer of microbial suspension to Mueller Hinton agar plates and measured after 24 hrs post transfer. The experiment is classed as functional.
The test system of experiment [18] is Pseudomonas aeruginosa. As to the kind of experiment: Antibiofilm activity against Pseudomonas aeruginosa MTCC 2453 after 24 hrs by crystal violet staining-based assay. The format is functional, organism-based.
In experiment [19] the test system is Escherichia coli. Nature of the experiment: Bactericidal activity against Escherichia coli MTCC 739 incubated for 24 hrs followed by transfer of microbial suspension to Mueller Hinton agar plates and measured after 24 hrs post transfer. The experiment is classed as functional.
[20] abbreviates: Klebsiella planticola, MTCC 530, 24 h, read-out: IC50.
The mark [21] stands for this setting: Staphylococcus aureus, MTCC 96, 24 h, read-out: IC50.

By MBC is commonly meant the smallest concentration meeting the test's criterion for killing. In general, IC50 refers to the concentration needed to halve the response being measured. By MIC is commonly meant the smallest concentration in the dilution series that meets the test's criterion for growth inhibition. Regarding `COc1ccc(-c2nc(C(=O)N3CCCC3)nc3nc(-c4ccccc4)cc(C(F)(F)F)c23)cc1`, the MBC result in the experiment on Micrococcus luteus [1], with Bacillus subtilis [5], in the experiment with Staphylococcus aureus [12], in the experiment on Staphylococcus aureus [16], in the experiment on Pseudomonas aeruginosa [17] and in the experiment with Escherichia coli [19] was “inactive” each time. Further, the 50% inhibitory concentration (IC50) entry in the experiment on Staphylococcus aureus [2] is “Not Active”; in the experiment on Raoultella planticola [3] (setting [20]), 10.8 µg/mL (≈ 22.6 µM); in the experiment with Staphylococcus aureus [11], “Not Active”; in the experiment with Bacillus subtilis [13], “Not Active”; with Pseudomonas aeruginosa [18], “Not Active”. Besides, the MIC result in the experiment on Staphylococcus aureus [4], in the experiment on Bacillus subtilis [6], with Micrococcus luteus [7], with Staphylococcus aureus [8], with Escherichia coli [10] and in the experiment with Pseudomonas aeruginosa [15] was “inactive” throughout. For the same compound, in the experiment on Raoultella planticola [9] (MTCC 530, 24 h), the lowest concentration to inhibit growth (MIC) was 15.6 µg/mL (≈ 32.6 µM). In addition, the minimal bactericidal concentration (MBC) against Raoultella planticola [14] (MTCC 530, 24 h) was determined as 15.6 µg/mL (≈ 32.6 µM).

As to `COc1ccc(-c2nc(C(=O)NC3CCCCC3)nc3nc(-c4ccccc4)cc(C(F)(F)F)c23)cc1`, the MBC entry in the experiment with Micrococcus luteus [1], with Bacillus subtilis [5], in the experiment with Staphylococcus aureus [12], in the experiment with Raoultella planticola [14], with Pseudomonas aeruginosa [17] and in the experiment with Escherichia coli [19] was “inactive” each time. In addition, the IC50 entry was “Not Active” with Staphylococcus aureus [2]; “Not Active” with Raoultella planticola [3]; 2.7 µg/mL (≈ 5.33 µM) in the experiment on Staphylococcus aureus [11] (setting [21]); “Not Active” in the experiment with Bacillus subtilis [13]; “Not Active” with Pseudomonas aeruginosa [18]. The MIC against Staphylococcus aureus [4] (MTCC 96, 24 h) was determined as 7.8 µg/mL (≈ 15.4 µM). Also, the MIC entry in the experiment with Bacillus subtilis [6], with Micrococcus luteus [7], in the experiment with Staphylococcus aureus [8], with Raoultella planticola [9], in the experiment with Escherichia coli [10] and in the experiment with Pseudomonas aeruginosa [15] was “inactive” throughout. In the experiment with Staphylococcus aureus [16] (MTCC 96, 24 h), this compound displayed an MBC of 7.8 µg/mL (≈ 15.4 µM).

Take `O=C(NCc1ccco1)c1nc(-c2ccccc2)c2c(C(F)(F)F)cc(-c3ccccc3)nc2n1`: the MBC entry in the experiment on Micrococcus luteus [1], with Bacillus subtilis [5], in the experiment with Staphylococcus aureus [12], in the experiment with Pseudomonas aeruginosa [17] and in the experiment on Escherichia coli [19] was “inactive” each time. The IC50 entry with Staphylococcus aureus [2] was “Not Active”; with Raoultella planticola [3] (setting [20]) it was 5.4 µg/mL (≈ 11.4 µM); in the experiment on Staphylococcus aureus [11] (setting [21]), 2.7 µg/mL (≈ 5.69 µM); in the experiment on Bacillus subtilis [13], “Not Active”; in the experiment with Pseudomonas aeruginosa [18], “Not Active”. Moreover, the MIC against Staphylococcus aureus [4] (MTCC 96, 24 h) was determined as 7.8 µg/mL (≈ 16.4 µM); with Raoultella planticola [9] (MTCC 530, 24 h) it was 15.6 µg/mL (≈ 32.9 µM). Besides, the MIC result in the experiment on Bacillus subtilis [6], in the experiment on Micrococcus luteus [7], in the experiment with Staphylococcus aureus [8], in the experiment on Escherichia coli [10] and with Pseudomonas aeruginosa [15] was “inactive” in each case. Further, the MBC was 31.2 µg/mL (≈ 65.8 µM) against Raoultella planticola [14] (MTCC 530, 24 h) and 15.6 µg/mL (≈ 32.9 µM) with Staphylococcus aureus [16] (MTCC 96, 24 h).

For `CCCNC(=O)c1nc(-c2ccc(OC)cc2)c2c(C(F)(F)F)cc(-c3ccccc3)nc2n1`, the MIC entry in the experiment with Staphylococcus aureus [4], in the experiment with Bacillus subtilis [6], with Micrococcus luteus [7], in the experiment on Staphylococcus aureus [8], in the experiment on Raoultella planticola [9] and in the experiment with Escherichia coli [10] was “inactive” in each case. For the same compound, the MIC entry in the experiment on Pseudomonas aeruginosa [15] was “inactive”.

For the compound `COc1ccc(-c2nc(C(=O)NCc3ccccc3)nc3nc(-c4ccccc4)cc(C(F)(F)F)c23)cc1`, the MIC entry in the experiment with Staphylococcus aureus [4], in the experiment on Bacillus subtilis [6], in the experiment on Micrococcus luteus [7], in the experiment on Staphylococcus aureus [8], in the experiment on Raoultella planticola [9] and in the experiment with Escherichia coli [10] was “inactive” each time. Moreover, the MIC entry in the experiment on Pseudomonas aeruginosa [15] is “inactive”.

For the compound `O=C(O)c1cn(C2CC2)c2cc(N3CCNCC3)c(F)cc2c1=O` [CIPROFLOXACIN], the MBC stood at 1.17 µg/mL (≈ 3.53 µM) against Micrococcus luteus [1] (MTCC 2470, 24 h); 0.58 µg/mL (≈ 1.75 µM) against Bacillus subtilis [5] (MTCC 121, 24 h); 1.17 µg/mL (≈ 3.53 µM) in the experiment with Staphylococcus aureus [12] (MLS16 MTCC 2940, 24 h); 0.58 µg/mL (≈ 1.75 µM) against Raoultella planticola [14] (MTCC 530, 24 h); 0.58 µg/mL (≈ 1.75 µM) in the experiment on Staphylococcus aureus [16] (MTCC 96, 24 h); 1.17 µg/mL (≈ 3.53 µM) with Pseudomonas aeruginosa [17] (MTCC 2453, 24 h). Also, in the experiment on Escherichia coli [19] (MTCC 739, 24 h), the minimal bactericidal concentration (MBC) is 0.58 µg/mL (≈ 1.75 µM). In addition, the 50% inhibitory concentration (IC50) was found to be 0.24 µg/mL (≈ 0.724 µM) with Staphylococcus aureus [2] (Staphylococcus aureus, MLS16 MTCC 2940, 24 h, read-out: IC50); 0.29 µg/mL (≈ 0.875 µM) in the experiment with Raoultella planticola [3] (setting [20]); 0.21 µg/mL (≈ 0.634 µM) in the experiment with Staphylococcus aureus [11] (setting [21]); 0.23 µg/mL (≈ 0.694 µM) in the experiment on Bacillus subtilis [13] (Bacillus subtilis, MTCC 121, 24 h, read-out: IC50); 0.32 µg/mL (≈ 0.966 µM) with Pseudomonas aeruginosa [18] (Pseudomonas aeruginosa, MTCC 2453, 24 h, read-out: IC50). The MIC with Staphylococcus aureus [4] (MTCC 96, 24 h) turned out to be 0.9 µg/mL (≈ 2.72 µM); against Bacillus subtilis [6] (MTCC 121, 24 h), 0.9 µg/mL (≈ 2.72 µM); in the experiment with Micrococcus luteus [7] (MTCC 2470, 24 h), 0.9 µg/mL (≈ 2.72 µM); with Staphylococcus aureus [8] (MLS16 MTCC 2940, 24 h), 0.9 µg/mL (≈ 2.72 µM); in the experiment with Raoultella planticola [9] (MTCC 530, 24 h), 0.9 µg/mL (≈ 2.72 µM); against Escherichia coli [10] (MTCC 739, 24 h), 0.9 µg/mL (≈ 2.72 µM). Also, the MIC in the experiment with Pseudomonas aeruginosa [15] (MTCC 2453, 24 h) was found to be 0.9 µg/mL (≈ 2.72 µM).

Consider `COc1ccc(-c2nc(C(=O)N3CCN(CCO)CC3)nc3nc(-c4ccccc4)cc(C(F)(F)F)c23)cc1`, for which the MIC entry in the experiment on Staphylococcus aureus [4], in the experiment with Bacillus subtilis [6], in the experiment on Micrococcus luteus [7], with Staphylococcus aureus [8], in the experiment on Raoultella planticola [9] and with Escherichia coli [10] was “inactive” throughout. The MIC result in the experiment on Pseudomonas aeruginosa [15] is “inactive”.

Take `CCNC(=O)c1nc(-c2ccccc2)c2c(C(F)(F)F)cc(-c3ccccc3)nc2n1`: the MIC result with Staphylococcus aureus [4], in the experiment with Bacillus subtilis [6], in the experiment with Micrococcus luteus [7], in the experiment on Staphylococcus aureus [8], in the experiment with Escherichia coli [10] and in the experiment with Pseudomonas aeruginosa [15] was “inactive” each time. In the experiment with Raoultella planticola [9] (MTCC 530, 24 h), 31.2 µg/mL (≈ 73.9 µM) was the least that counted as inhibitory (MIC).

For the compound `COc1ccc(-c2nc(C(=O)NCCO)nc3nc(-c4ccccc4)cc(C(F)(F)F)c23)cc1`, the MIC result in the experiment with Staphylococcus aureus [4], in the experiment on Bacillus subtilis [6], with Micrococcus luteus [7], in the experiment with Staphylococcus aureus [8], in the experiment with Raoultella planticola [9] and in the experiment on Escherichia coli [10] was “inactive” throughout. For the same compound, in the experiment on Pseudomonas aeruginosa [15], the MIC entry was “inactive”.

For the compound `COc1ccc(-c2nc(C(=O)NCc3ccco3)nc3nc(-c4ccccc4)cc(C(F)(F)F)c23)cc1`, the MIC result with Staphylococcus aureus [4], in the experiment with Bacillus subtilis [6], in the experiment on Micrococcus luteus [7], in the experiment on Staphylococcus aureus [8], in the experiment on Raoultella planticola [9] and with Escherichia coli [10] was “inactive” each time. Besides, the MIC result in the experiment on Pseudomonas aeruginosa [15] was “inactive”.
